Reference: patent US20220106289A1, “NLRP3 INHIBITORS” (INFLAZOME LIMITED, priority 2018, published 2022)
Counter-ions that a name gives are not always drawn.

Assays:
NLRP3 [1] = biological target: T1, NLRP3 (Homo sapiens, UniProt Q96P20); experiment: Human whole blood IL-1β release assay (LPS + nigericin, AlphaLisa); format: cell-based; design: Human whole blood in Li-heparin tubes was obtained from healthy donors; from tissue; host or cells: human whole blood from healthy donors; details: NLRP3 inhibitory activity, 1 μg/ml LPS, 10 μM nigericin, read-out: HWB IC50
Protocol: For systemic delivery, the ability to inhibit NLRP3 when the compounds are present within the bloodstream is of great importance. For this reason, the NLRP3 inhibitory activity of a number of compounds in human whole blood was investigated in accordance with the following protocol. Human whole blood in Li-heparin tubes was obtained from healthy donors from a volunteer donor panel. • 1. […] Incubate for 3 hrs at 37° C., 5% CO2 • 4. Add 10 μl nigericin (Sigma #N7143) (10 μM FAC) to all wells • 5. Incubate for 1 hr at 37° C., 5% CO2 • 6. At the end of the incubation period, spin plates at 300×g for 5 mins to pellet cells and remove 20 μl of supernatant and add to 96-well v-bottom plates for IL-1β analysis (note: these plates containing the supernatants can be stored at -80° C. to be analysed at a later date) • 7. IL-1β was measured according to the manufacturer protocol (Perkin Elmer-AlphaLisa IL-1 Kit A[…]-5000) • 8.

NLRP3 [2] = biological target: T1, NLRP3; experiment: THP-1 cells pyroptosis assay (LPS + nigericin, resazurin read-out); format: cell-based; design: Seed THP-1 cells (25,000 cells/well) containing 1.0 μg/ml LPS; host or cells: THP-1 cells; details: NLRP3 inhibitory activity, 1 μg/ml LPS, 5 μM nigericin
Protocol: The cells were routinely passaged and grown to confluency (˜10^6 cells/ml). On the day of the experiment, THP-1 cells were harvested and resuspended into RPMI medium (without FBS). The cells were then counted and viability (>90%) checked by Trypan blue (Sigma #T8154). […] To this diluted cell solution was added LPS (Sigma #L4524) to give a 1 μg/ml Final Assay Concentration (FAC). 40 μl of the final preparation was aliquoted into each well of a 96-well plate. The plate thus prepared was used for compound screening. The following method step-by-step assay was followed for compound screening. • 1. […] Incubate for 3 hrs at 37° C., 5% CO2 • 4. Add 5 μl nigericin (Sigma #N7143) (FAC 5 μM) to all wells • 5. Incubate for 1 hr at 37° C., 5% CO2 • 6. At the end of the incubation period, spin plates at 300×g for 3 mins and remove supernatant • 7. Then add 50 μl of resazurin (Sigma #R7017) (FAC 100 μM resazurin in RPMI medium without FBS) and incubate plates for a further 1-2 hrs at 37° C. and 5% CO2 • 8.

T1 sequence (Q96P20 whole entry): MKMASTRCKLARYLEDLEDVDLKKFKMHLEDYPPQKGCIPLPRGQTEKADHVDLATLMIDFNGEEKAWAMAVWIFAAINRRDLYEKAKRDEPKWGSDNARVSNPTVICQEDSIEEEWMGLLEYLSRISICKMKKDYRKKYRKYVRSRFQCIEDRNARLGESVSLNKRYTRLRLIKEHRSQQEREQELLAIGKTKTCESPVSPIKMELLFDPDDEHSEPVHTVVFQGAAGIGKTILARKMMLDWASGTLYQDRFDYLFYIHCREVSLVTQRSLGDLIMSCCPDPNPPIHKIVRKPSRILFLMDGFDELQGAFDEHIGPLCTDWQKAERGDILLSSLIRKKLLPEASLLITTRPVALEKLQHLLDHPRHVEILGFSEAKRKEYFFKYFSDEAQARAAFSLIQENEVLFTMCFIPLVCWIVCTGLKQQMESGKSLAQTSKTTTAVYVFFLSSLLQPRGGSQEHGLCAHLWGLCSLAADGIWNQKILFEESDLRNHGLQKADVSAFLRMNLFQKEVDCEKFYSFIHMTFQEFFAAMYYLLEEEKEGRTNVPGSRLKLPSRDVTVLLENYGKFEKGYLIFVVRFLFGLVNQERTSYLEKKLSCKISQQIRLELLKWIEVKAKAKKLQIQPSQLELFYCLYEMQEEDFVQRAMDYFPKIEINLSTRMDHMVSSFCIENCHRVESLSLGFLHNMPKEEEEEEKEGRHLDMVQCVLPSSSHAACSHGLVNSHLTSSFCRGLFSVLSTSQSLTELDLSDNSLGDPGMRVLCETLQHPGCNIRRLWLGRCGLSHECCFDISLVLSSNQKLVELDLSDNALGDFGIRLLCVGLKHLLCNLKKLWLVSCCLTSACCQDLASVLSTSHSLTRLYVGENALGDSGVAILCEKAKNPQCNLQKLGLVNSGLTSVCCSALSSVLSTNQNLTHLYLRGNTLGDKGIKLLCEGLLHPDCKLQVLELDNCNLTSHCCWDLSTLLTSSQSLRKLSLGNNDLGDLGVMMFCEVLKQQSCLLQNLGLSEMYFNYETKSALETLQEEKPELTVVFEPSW

Row | SMILES | IC50 (NLRP3 [1]) [nM] | IC50 (NLRP3 [2]) [nM]
1 | CC(C)n1ncc(S(=O)(=O)NC(=O)Nc2c3c(cc4c2CCC4)CCC3)n1 [Example 48, N-((1,2,3,5,6,7-Hexahydro-s-indacen-4-yl)carbamoyl)-2-isopropyl-2H-1,2,3-triazole-4-sulfonamide] | 1000 to 5000 | < 250
2 | CN(C)CC1(n2ccc(S(=O)(=O)NC(=O)Nc3c4c(cc5c3CCC5)CCC4)n2)CCC1 [Example 60, 1-(1-((Dimethylamino)methyl)cyclobutyl)-N-((1,2,3,5,6,7-hexahydro-s-indacen-4-yl)carbamoyl)-1H-pyrazole-3-sulfonamide] | < 250 | < 250
3 | O=C(Nc1c2c(cc3c1CCO3)CCC2)NS(=O)(=O)c1ccn(C2CC2)n1 [Example 67, 1-Cyclopropyl-N-((3,5,6,7-tetrahydro-2H-indeno[5,6-b]furan-4-yl)carbamoyl)-1H-pyrazole-3-sulfonamide] | 1000 to 5000 | < 250
4 | C#CCCC1(CCn2ccc(S(=O)(=O)NC(=O)Nc3c4c(cc5c3CCC5)CCC4)n2)N=N1 [Example 16, 1-(2-(3-(But-3-yn-1-yl)-3H-diazirin-3-yl)ethyl)-N-((1,2,3,5,6,7-hexahydro-s-indacen-4-yl)carbamoyl)-1H-pyrazole-3-sulfonamide, potassium salt] | 5000 to 10000 | < 250
5 | O=C(Nc1c2c(cc3c1CCC3)CCC2)NS(=O)(=O)c1cc[nH]n1 [Example 13, N-((1,2,3,5,6,7-Hexahydro-s-indacen-4-yl)carbamoyl)-1H-pyrazole-3-sulfonamide, potassium salt] | > 10000 | 1000 to 5000
6 | CC(C)n1ccc(S(=N)(=O)NC(=O)Cc2c3c(cc4c2CCC4)CCC3)n1 (stereo not drawn) [Example 24, 2-(1,2,3,5,6,7-Hexahydro-s-indacen-4-yl)-N-(1-isopropyl-1H-pyrazole-3-sulfonimidoyl)acetamide] | > 10000 | 1000 to 5000
7 | Cn1nc(S(=O)(=O)NC(=O)Nc2c3c(cc4c2CCC4)CCC3)cc1CO [Example 84, N-((1,2,3,5,6,7-Hexahydro-s-indacen-4-yl)carbamoyl)-5-(hydroxymethyl)-1-methyl-1H-pyrazole-3-sulfonamide] | 500 to 1000 | 250 to 500
8 | Cc1cc(C(C)(C)O)ccc1S(=O)(=O)NC(=O)Cc1c(C(C)C)cc(F)cc1C(C)C [Example 2, 2-(4-Fluoro-2,6-diisopropylphenyl)-N-((4-(2-hydroxypropan-2-yl)-2-methylphenyl)sulfonyl)acetamide, potassium salt] | > 10000 | 250 to 500
9 | CC(C)n1cc(F)c(S(=O)(=O)NC(=O)Nc2c3c(cc4c2CCC4)CCC3)n1 [Example 55, 4-Fluoro-N-((1,2,3,5,6,7-hexahydro-s-indacen-4-yl)carbamoyl)-1-isopropyl-1H-pyrazole-3-sulfonamide] | 500 to 1000 | < 250
10 | CC(C)c1cc(F)cc(C(C)C)c1CC(=O)NS(=O)(=O)c1ccc(CN(C)C)cc1 [Example 33, N-((4-((Dimethylamino)methyl)phenyl)sulfonyl)-2-(4-fluoro-2,6-diisopropylphenyl)acetamide, 2,2,2-trifluoroacetate salt] | 1000 to 5000 | 1000 to 5000
11 | CN(C)Cc1ccc(S(=O)(=O)NC(=O)Nc2c3c(cc4c2CCC4)CCC3)cc1 [Example 66, 4-((Dimethylamino)methyl)-N-((1,2,3,5,6,7-hexahydro-s-indacen-4-yl)carbamoyl)benzenesulfonamide, sodium salt] | 250 to 500 | < 250
12 | CC(C)c1cc(Cl)cc(C(C)C)c1NC(=O)NS(=O)(=O)c1cnn(CC(F)(F)F)c1 [Example 40, N-((4-Chloro-2,6-diisopropylphenyl)carbamoyl)-1-(2,2,2-trifluoroethyl)-1H-pyrazole-4-sulfonamide] | 1000 to 5000 | 250 to 500
13 | CC(C)c1cc(C#N)cc(C(C)C)c1NC(=O)NS(=O)(=O)c1ccn(C(C)C)n1 [Example 72, N-((4-Cyano-2,6-diisopropylphenyl)carbamoyl)-1-isopropyl-1H-pyrazole-3-sulfonamide] | 5000 to 10000 | 1000 to 5000
14 | Cc1cc(CN(C)C)cc(S(=O)(=O)NC(=O)Nc2c3c(cc4c2CCC4)CCC3)c1 [Example 57, 3-((Dimethylamino)methyl)-N-((1,2,3,5,6,7-hexahydro-s-indacen-4-yl)carbamoyl)-5-methylbenzenesulfonamide, sodium salt] | 1000 to 5000 | < 250
15 | O=C(Nc1c2c(cc3c1CCC3)CCC2)NS(=O)(=O)c1cnn(CC2CC2)c1 [Example 44, 1-(Cyclopropylmethyl)-N-((1,2,3,5,6,7-hexahydro-s-indacen-4-yl)carbamoyl)-1H-pyrazole-4-sulfonamide, sodium salt] | – | < 250
16 | CC(C)c1cc(F)cc(C(C)C)c1CC(=O)NS(=O)(=O)c1ccc2ccccc2c1 [Example 96, 2-(4-Fluoro-2,6-diisopropylphenyl)-1-(2-naphthylsulfonylamino)-1-ethanone] | – | 1000 to 5000
17 | CC(C)(C)OC(=O)NC/C(=C\F)COc1ccc(S(=O)(=O)NC(=O)Nc2c3c(cc4c2CCC4)CCC3)cc1 [Example 18, tert-Butyl-(3-fluoro-2-((4-(N-((1,2,3,5,6,7-hexahydro-s-indacen-4-yl)carbamoyl)sulfamoyl)phenoxy)methyl)allyl)carbamate, potassium salt] | – | 1000 to 5000
18 | COc1cc(-c2cc(F)cc(C(C)C)c2CC(=O)Nc2ncco2)ccn1 [Example 95, 2-(4-Fluoro-2-isopropyl-6-(2-methoxypyridin-4-yl)phenyl)-N-(oxazol-2-yl)acetamide] | – | 5000 to 10000
19 | CC(C)c1cc(-c2ccccc2)cc(C(C)C)c1NC(=O)NS(=O)(=O)c1ccn(C(C)C)n1 [Example 73, N-((3,5-Diisopropyl-[1,1′-biphenyl]-4-yl)carbamoyl)-1-isopropyl-1H-pyrazole-3-sulfonamide] | – | 5000 to 10000
20 | Cc1nn(C)cc1S(=O)(=O)NC(=O)Nc1c2c(cc3c1CCC3)CCC2 [Example 80, N-((1,2,3,5,6,7-Hexahydro-s-indacen-4-yl)carbamoyl)-1,3-dimethyl-1H-pyrazole-4-sulfonamide, sodium salt] | – | 500 to 1000
21 | CC(C)c1cc(F)cc(C(C)C)c1NC(=O)NS(=O)(=O)c1cc(C(C)(C)O)n(C(C)C)n1 [Example 50, N-((4-Fluoro-2,6-diisopropylphenyl)carbamoyl)-5-(2-hydroxypropan-2-yl)-1-isopropyl-1H-pyrazole-3-sulfonamide] | – | 250 to 500
22 | CC(O)c1cc(S(=O)(=O)NC(=O)Nc2c3c(cc4c2CCC4)CCC3)nn1C (stereo not drawn) [Example 74, N-((1,2,3,5,6,7-Hexahydro-s-indacen-4-yl)carbamoyl)-5-(1-hydroxyethyl)-1-methyl-1H-pyrazole-3-sulfonamide] | – | 500 to 1000
23 | Cc1cc(Br)cc(CC(=O)NS(=O)(=O)c2cc(C(C)(C)O)co2)c1 [Example 94, 2-(3-Bromo-5-methylphenyl)-N-((4-(2-hydroxypropan-2-yl)furan-2-yl)sulfonyl)acetamide] | – | 1000 to 5000
24 | CC(C)c1cc(F)cc(C(F)(F)F)c1NC(=O)NS(=O)(=O)c1ccn(C(C)C)n1 [Example 70, N-((4-Fluoro-2-isopropyl-6-(trifluoromethyl)phenyl)carbamoyl)-1-isopropyl-1H-pyrazole-3-sulfonamide] | – | 5000 to 10000
25 | CC(C)(O)c1coc(S(=O)(=O)NC(=O)Cc2cc(C(F)(F)F)cc(C(F)(F)F)c2)c1 [Example 98, 2-(3,5-bis(Trifluoromethyl)phenyl)-N-((4-(2-hydroxy-propan-2-yl)furan-2-yl)sulfonyl)acetamide] | – | 1000 to 5000
